Source: PubChem BioAssay AID328 (DTP/NCI, 2004)
“And” between values parts separate entries of the source, which are not always exact repeats. Identical values can stand only once. Inconclusive results and toxic doses are left out. Rule for the calls: active = survival T/C of 150% or more; inactive = T/C below 125% in these data.

Tested on: BDF1 mice, P388 leukemia ip, median survival T/C
Assay: NCI In Vivo Anticancer Drug Screen. Data for tumor model P388 Leukemia (intraperitoneal) in B6D2F1 (BDF1) mice
Conditions: endpoint: median survival time, higher = longer survival
Summary of the method: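 Vehicle-dosed animals serve as the reference; survival of compound-dosed, tumour-implanted mice is divided by it.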

[1] = dose: 100.0 mg/kg/injection, schedule: Q04DX003 (ip), vehicle: saline with Tween-80
[2] = dose: 200.0 mg/kg/injection, schedule: Q04DX003 (ip), vehicle: saline with Tween-80
[3] = dose: 50.0 mg/kg/injection, schedule: Q01DX009 (ip), vehicle: saline
[4] = dose: 6.25 mg/kg/injection, schedule: Q01DX009 (ip), vehicle: Klucel (hydroxypropylcellulose) (HPC)

Measured: T/C

CCCCCCCCCCCCN(C)C
inactive: dose: 12.5 mg/kg/injection, schedule: Q04DX003 (ip), vehicle: saline 104 % of control | dose: 25.0 mg/kg/injection, schedule: Q04DX003 (ip), vehicle: saline 109 % of control | dose: 50.0 mg/kg/injection, schedule: Q04DX003 (ip), vehicle: saline 118 % of control

Cc1nc2nc(N)nc(N)c2nc1C
inactive: dose: 50.0 mg/kg/injection, schedule: Q01DX009 (ip), vehicle: saline with Tween-80 100 % of control | dose: 100.0 mg/kg/injection, schedule: Q01DX009 (ip), vehicle: saline with Tween-80 104 % of control | [1] 95 % of control | dose: 200.0 mg/kg/injection, schedule: Q01DX009 (ip), vehicle: saline with Tween-80 100 % of control | [2] 95 % of control

C=CC(=O)Oc1ccc(Cl)cc1
inactive: dose: 12.5 mg/kg/injection, schedule: Q04DX003 (ip), vehicle: saline with Tween-80 100 % of control | dose: 25.0 mg/kg/injection, schedule: Q04DX003 (ip), vehicle: saline with Tween-80 104 % of control | dose: 50.0 mg/kg/injection, schedule: Q04DX003 (ip), vehicle: saline with Tween-80 118 % of control

NC(=S)N/N=C\c1nccc2c(C(F)(F)C(F)(F)C(F)(F)F)cccc12
inactive: [1] 110 % of control | [2] 98 % of control | dose: 400.0 mg/kg/injection, schedule: Q04DX003 (ip), vehicle: saline with Tween-80 88 % of control

CC(O)C(F)(F)C(F)(F)C(F)(F)C(C)O (stereo not given)
inactive: [3] 90 % of control | dose: 100.0 mg/kg/injection, schedule: Q01DX009 (ip), vehicle: saline 104 % of control | dose: 100.0 mg/kg/injection, schedule: Q04DX003 (ip), vehicle: saline sonified 116 % of control | dose: 200.0 mg/kg/injection, schedule: Q01DX009 (ip), vehicle: saline 104 % of control | dose: 200.0 mg/kg/injection, schedule: Q04DX003 (ip), vehicle: saline sonified 94 % of control | dose: 400.0 mg/kg/injection, schedule: Q04DX003 (ip), vehicle: saline sonified 116 % of control

CN(C)c1ccc2c(c1)Cc1cc(N=C3C=CC(=O)O3)ccc1-2
inactive: dose: 1.56 mg/kg/injection, schedule: Q01DX009 (ip), vehicle: Klucel (hydroxypropylcellulose) (HPC) 109 % of control | dose: 3.12 mg/kg/injection, schedule: Q01DX009 (ip), vehicle: Klucel (hydroxypropylcellulose) (HPC) 100 % of control | [4] 90 % of control | dose: 25.0 mg/kg/injection, schedule: Q01DX009 (ip), vehicle: saline 92 % of control | [3] 100 % of control

CC(=O)OC1=CCC(C(C)(C)C)CC1 (stereo not given)
inactive: dose: 5.15 mg/kg/injection, schedule: Q04DX003 (ip), vehicle: saline 100 % of control | [4] 100 % of control | dose: 10.31 mg/kg/injection, schedule: Q04DX003 (ip), vehicle: saline 90 % of control | dose: 12.5 mg/kg/injection, schedule: Q01DX009 (ip), vehicle: Klucel (hydroxypropylcellulose) (HPC) 100 % of control | dose: 20.62 mg/kg/injection, schedule: Q04DX003 (ip), vehicle: saline 90 % of control | dose: 25.0 mg/kg/injection, schedule: Q01DX009 (ip), vehicle: Klucel (hydroxypropylcellulose) (HPC) 100 % of control | dose: 35.0 mg/kg/injection, schedule: Q01DX009 (ip), vehicle: Klucel (hydroxypropylcellulose) (HPC) 91 % of control and 100 % of control | dose: 41.25 mg/kg/injection, schedule: Q04DX003 (ip), vehicle: Klucel (hydroxypropylcellulose) (HPC) 87 % of control | dose: 55.0 mg/kg/injection, schedule: Q01DX009 (ip), vehicle: Klucel (hydroxypropylcellulose) (HPC) 100 % of control | dose: 80.0 mg/kg/injection, schedule: Q01DX009 (ip), vehicle: Klucel (hydroxypropylcellulose) (HPC) 87 % of control

CC1(CCNC2CCCCC2)Oc2ccccc2O1
inactive: dose: 50.0 mg/kg/injection, schedule: Q04DX002 (ip), vehicle: Klucel (hydroxypropylcellulose) (HPC) 99 % of control | dose: 100.0 mg/kg/injection, schedule: Q04DX002 (ip), vehicle: Klucel (hydroxypropylcellulose) (HPC) 101 % of control

CN(C)c1ccc2cc3ccc(N(C)C)cc3nc2c1
inactive: dose: 3.12 mg/kg/injection, schedule: Q04DX003 (ip), vehicle: water 93 % of control | dose: 6.25 mg/kg/injection, schedule: Q04DX003 (ip), vehicle: water 106 % of control | dose: 12.5 mg/kg/injection, schedule: Q04DX003 (ip), vehicle: water 99 % of control | dose: 25.0 mg/kg/injection, schedule: Q04DX003 (ip), vehicle: water 109 % of control | dose: 50.0 mg/kg/injection, schedule: Q04DX003 (ip), vehicle: water 115 % of control

CC(C)(C1=CC=CS1(=O)=O)C1=CC=C(C(C)(C)C2=CC=CS2(=O)=O)S1(=O)=O
inactive: dose: 100.0 mg/kg/injection, schedule: Q01DX001 (ip), vehicle: saline with Tween-80 102 % of control | dose: 200.0 mg/kg/injection, schedule: Q01DX001 (ip), vehicle: saline with Tween-80 94 % of control | dose: 400.0 mg/kg/injection, schedule: Q01DX001 (ip), vehicle: saline with Tween-80 106 % of control
